In US6653300B2, “Pyrazole compounds useful as protein kinase inhibitors” (Vertex Pharmaceuticals Incorporated, priority 2000, dated 2003):

Tests used:
[1] = target: T1, GSK-3β (AA 1-420) (Homo sapiens, UniProt P49841); assay: Ki determination for the inhibition of GSK-3 (coupled enzyme system); format: biochemical; conditions: 20 μM ATP, 20 nM GSK-3β, 30° C.
T1 construct: GSK-3β (AA 1-420)
Method in brief: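 GSK-3β (AA 1-420, 20 nM) was run in a pyruvate kinase/LDH-coupled NADH assay in 100 mM HEPES pH 7.5, 10 mM MgCl2, 25 mM NaCl, 1 mM DTT, 1.5% DMSO, with 300 μM phosphopeptide substrate. Compound (0.002–30 μM) was preincubated 10 min at 30° C, then 20 μM ATP was added.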

[2] = target: T2, Aurora-2 (Homo sapiens, UniProt O14965); assay: Ki determination for the inhibition of Aurora-2 (coupled enzyme assay); format: biochemical; conditions: 70 nM Aurora-2, 30° C.
T2 sequence (O14965 1-403): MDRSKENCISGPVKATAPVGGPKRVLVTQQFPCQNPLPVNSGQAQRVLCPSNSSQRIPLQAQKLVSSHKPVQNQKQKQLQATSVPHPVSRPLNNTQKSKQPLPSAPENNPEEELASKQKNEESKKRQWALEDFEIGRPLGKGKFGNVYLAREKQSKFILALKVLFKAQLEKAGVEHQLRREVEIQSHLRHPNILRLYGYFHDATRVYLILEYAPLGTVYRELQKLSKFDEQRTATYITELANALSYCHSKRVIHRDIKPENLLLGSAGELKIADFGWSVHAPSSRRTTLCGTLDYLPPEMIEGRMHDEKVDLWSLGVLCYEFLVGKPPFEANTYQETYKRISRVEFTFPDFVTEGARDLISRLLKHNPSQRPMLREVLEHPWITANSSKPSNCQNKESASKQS
Protocol: Compounds were screened in the following manner for their ability to inhibit Aurora-2 using a standard coupled enzyme assay (Fox et al (1998) Protein Sci 7, 2249).
To an assay stock buffer solution containing 0.1M HEPES 7.5, 10 mM MgCl2, 1 mM DTT, 25 mM NaCl, 2.5 mM phosphoenolpyruvate, […], 30 mg/ml pyruvate kinase, 10 mg/ml lactate dehydrogenase, […], and 800 μM peptide (LRRASLG, American Peptide, Sunnyvale, Calif.) was added a DMSO solution of a compound of the present invention to a final concentration of 30 μM. The resulting mixture was incubated at 30° C. for 10 min. The reaction was initiated by the addition of 10 μL of Aurora-2 stock solution to give a final concentration of 70 nM in the assay. The rates of reaction were obtained by monitoring absorbance at 340 nm over a 5 minute read time at 30° C. using a BioRad Ultramark plate reader (Hercules, Calif.). The Ki values were determined from the rate data as a function of inhibitor concentration.

T1 sequence (P49841 whole entry, the tested form may be a part): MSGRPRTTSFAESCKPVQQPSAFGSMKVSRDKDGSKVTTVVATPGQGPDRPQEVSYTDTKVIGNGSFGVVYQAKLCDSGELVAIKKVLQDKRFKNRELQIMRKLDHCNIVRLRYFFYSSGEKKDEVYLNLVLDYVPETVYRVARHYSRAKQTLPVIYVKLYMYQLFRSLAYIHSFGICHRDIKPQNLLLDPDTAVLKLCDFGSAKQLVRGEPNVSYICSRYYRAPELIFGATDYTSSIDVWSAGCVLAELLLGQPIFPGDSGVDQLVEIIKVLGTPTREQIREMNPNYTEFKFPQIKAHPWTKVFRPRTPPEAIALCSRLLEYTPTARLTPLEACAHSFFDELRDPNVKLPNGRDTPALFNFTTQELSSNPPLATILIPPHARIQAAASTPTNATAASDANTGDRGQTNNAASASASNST

| Structure (SMILES) | Ki [1] [nM] | Ki [2] [nM] | melting point |
| --- | --- | --- | --- |
| Cc1cc(Nc2nc(Sc3ccc(F)cc3F)nc3ccccc23)n[nH]1 [IIa-12, [2-(2,4-Difluorophenylsulfanyl)-quinazolin-4-yl]-(5-methyl-2H-pyrazol-3-yl)-amine] | < 100 | < 100 | 256 to 258 °C |
| Cc1cc(Nc2nc(Sc3nccn3C)nc3ccccc23)n[nH]1 [IIa-10, [2-(1-Methylimidazol-2-ylsulfanyl)-quinazolin-4-yl]-(5-methyl-2H-pyrazol-3-yl)-amine] | 1000 to 7000 | 1000 to 10000 | 255 to 256 °C |
| Cc1cc(Nc2nc(Sc3ccc(NS(C)(=O)=O)cc3)nc3c(O)cccc23)n[nH]1 [IIa-69, [8-Hydroxy-2-(4-methylsulfonylamino-phenylsulfanyl)-quinazolin-4-yl]-(5-methyl-2H-pyrazol-3-yl)-amine] | 100 to 1000 | < 100 | 291 to 293 °C |
| Cc1cc(Nc2nc(Sc3cccc(Br)c3)nc3ccccc23)n[nH]1 [IIa-47, [2-(3-Bromophenylsulfanyl)-quinazolin-4-yl]-(5-methyl-2H-pyrazol-3-yl)-amine] | < 100 | < 100 | 280 to 281 °C |
| CC(=O)Nc1ccc(Sc2nc(Nc3cc(C)[nH]n3)c3ccc(OCCCN(C)C)cc3n2)cc1 [IIa-75, [2-(4-Acetamidophenylsulfanyl)-7-(3-dimethylamino-propoxy)-quinazolin-4-yl]-(5-methyl-2H-pyrazol-3-yl)-amine] | – | < 100 | 249 to 250 °C |
| CC(=O)Nc1ccc(Nc2nc(Nc3cc(C)[nH]n3)c3ccccc3n2)cc1 [IIc-59, [2-(4-Acetamidophenylamino)-quinazolin-4-yl]-(5-methyl-2H-pyrazol-3-yl)-amine] | 100 to 1000 | < 100 | 253 to 256 °C |
| Cc1cc(Nc2nc(Sc3ccc(NC(=O)CC(C)C)cc3)nc3ccccc23)n[nH]1 [IIa-57, [2-(4-Isobutanecarbonylamino-phenylsulfanyl)-quinazolin-4-yl]-(5-methyl-2H-pyrazol-3-yl)-amine] | – | < 100 | 281 to 282 °C |
| Cc1cc(Nc2nc(Oc3ccc4ccccc4c3)nc3ccccc23)n[nH]1 [IIb-2, (5-Methyl-2H-pyrazol-3-yl)-[2-(naphthalen-2-yloxy)-quinazolin-4-yl]-amine] | – | < 100 | > 300 °C |
| COc1cccc(Oc2nc(Nc3cc(C)[nH]n3)c3ccccc3n2)c1 [IIb-6, [2-(3-Methoxyphenoxy)-quinazolin-4-yl]-(5-methyl-2H-pyrazol-3-yl)-amine] | – | < 100 | 277 to 278 °C |
| Cc1cc(Nc2nc(Sc3ccc(NC(=O)CN4CCOCC4)cc3)nc3ccccc23)n[nH]1 [IIa-60, (5-Methyl-2H-pyrazol-3-yl)-{2-[4-(2-morpholin-4-yl-acetylamino)-phenylsulfanyl]-quinazolin-4-yl}-amine] | – | < 100 | 266 to 267 °C |
| CC(=O)Nc1ccc(Sc2nc(Nc3cc(C)[nH]n3)c3cccc(OCCCN(C)C)c3n2)cc1 [IIa-73, [2-(4-Acetamidophenylsulfanyl)-8-(3-dimethylamino-propoxy)-quinazolin-4-yl]-(5-methyl-2H-pyrazol-3-yl)-amine] | – | < 100 | 170 to 172 °C |
| Cc1cc(Nc2nc(Nc3cccc(Cl)c3)nc3ccccc23)n[nH]1 [IIc-11, [2-(3-Chlorophenylamino)-quinazolin-4-yl]-(5-methyl-2H-pyrazol-3-yl)-amine] | < 100 | < 100 | – |
| COc1cccc(Nc2nc(Nc3cc(C)[nH]n3)c3ccccc3n2)c1 [IIc-56, [2-(3-Methoxyphenylamino)-quinazolin-4-yl]-(5-methyl-2H-pyrazol-3-yl)-amine] | 100 to 1000 | < 100 | – |

More lines, now with the values ahead:

| Ki [1] [nM] | Ki [2] [nM] | melting point | Structure (SMILES) |
| --- | --- | --- | --- |
| 100 to 1000 | < 100 | 262 to 264 °C | CC(=O)Nc1ccc(Sc2nc(Nc3cc(C)[nH]n3)c3cccc(OCCCN4CCOCC4)c3n2)cc1 [IIa-41, [2-(4-Acetamidophenylsulfanyl)-8-(3-morpholin-4-yl-propoxy)-quinazolin-4-yl]-(5-methyl-2H-pyrazol-3-yl)-amine] |
| < 100 | < 100 | 296 to 299 °C (dec.) | Cc1cc(Nc2nc(Oc3ccc4c(c3)OCO4)nc3ccccc23)n[nH]1 [IIb-8, [2-(Benzo[1,3]dioxol-5-yloxy)-quinazolin-4-yl]-(5-methyl-2H-pyrazol-3-yl)-amine] |
| < 100 | < 100 | 273 to 275 °C | Cc1cc(Nc2nc(Sc3ccccc3O)nc3ccccc23)n[nH]1 [IIa-11, [2-(2-Hydroxyphenylsulfanyl)-quinazolin-4-yl]-(5-methyl-2H-pyrazol-3-yl)-amine] |
| < 100 | < 100 | 224 to 225 °C | COC(=O)c1cccc(Sc2nc(Nc3cc(C4CC4)[nH]n3)c3ccccc3n2)c1 [IIa-22, (5-Cyclopropyl-2H-pyrazol-3-yl)-[2-(3-methoxycarbonylphenylsulfanyl)-quinazolin-4-yl]-amine] |
| 100 to 1000 | < 100 | 240 to 242 °C | Cc1cccc(Nc2nc(Nc3cc(C)[nH]n3)c3ccccc3n2)c1 [IIc-50, [2-(3-Methylphenylamino)-quinazolin-4-yl]-(5-methyl-2H-pyrazol-3-yl)-amine] |
| 100 to 1000 | < 100 | 298 to 302 °C | O=C(O)c1cccc(Nc2nc(Nc3cc(C4CC4)[nH]n3)c3ccccc3n2)c1 [IIc-40, [2-(3-Carboxyphenylamino)-quinazolin-4-yl]-(5-cyclopropyl-2H-pyrazol-3-yl)-amine] |
| – | < 100 | 153 °C | c1ccc(-c2cccc(Nc3nc(Nc4cc(C5CC5)[nH]n4)c4ccccc4n3)c2)cc1 [IIc-46, [2-(Biphenyl-3-ylamino)-quinazolin-4-yl]-(5-cyclopropyl-2H-pyrazol-3-yl)-amine] |
| < 100 | < 100 | 290 to 293 °C | Cc1cc(Nc2nc(Nc3ccc(Br)cc3)nc3ccccc23)n[nH]1 [IIc-67, [2-(4-Bromophenylamino)-quinazolin-4-yl]-(5-methyl-2H-pyrazol-3-yl)-amine] |
| 1000 to 7000 | < 100 | 240 to 243 °C | Cc1cc(Nc2nc(Sc3ccc(NC(=O)CCCN4CCOCC4)cc3)nc3ccccc23)n[nH]1 [IIa-64, (5-Methyl-2H-pyrazol-3-yl)-{2-[4-(4-morpholin-4-yl-butyrylamino)-phenylsulfanyl]-quinazolin-4-yl}-amine] |
| 1000 to 7000 | < 100 | 219 to 221 °C | c1ccc(Cc2nc(Nc3cc(C4CC4)[nH]n3)c3ccccc3n2)cc1 [IId-3, (2-Benzyl-quinazolin-4-yl)-(5-cyclopropyl-2H-pyrazol-3-yl)-amine] |
| < 100 | < 100 | 293 to 298 °C | Cc1cc(Nc2nc(Nc3ccc(C#N)cc3)nc3ccccc23)n[nH]1 [IIc-61, [2-(4-Cyanophenylamino)-quinazolin-4-yl]-(5-methyl-2H-pyrazol-3-yl)-amine] |
| 100 to 1000 | < 100 | > 300 °C | Cc1cc(Nc2nc(Sc3ccc(N)cc3)nc3ccccc23)n[nH]1 [IIa-62, [2-(4-Amino-phenylsulfanyl)-quinazolin-4-yl]-(5-methyl-2H-pyrazol-3-yl)-amine] |
| – | < 100 | 264 to 265 °C | CC(=O)Nc1ccc(Sc2nc(Nc3cc(C)[nH]n3)c3ccc(N)cc3n2)cc1 [IIa-59, [2-(4-Acetamido-phenylsulfanyl)-7-aminoquinazolin-4-yl]-(5-methyl-2H-pyrazol-3-yl)-amine] |
| 100 to 1000 | < 100 | 257 to 260 °C | COC(=O)c1ccc(Sc2nc(Nc3cc(C)[nH]n3)c3ccccc3n2)cc1 [IIa-42, [2-(4-Methoxycarbonylphenylsulfanyl)-quinazolin-4-yl]-(5-methyl-2H-pyrazol-3-yl)-amine] |
| 1000 to 7000 | < 100 | 285 to 287 °C | Cc1cc(Nc2nc(Sc3ccc(NC(=O)C(C)C)cc3)nc3ccccc23)n[nH]1 [IIa-49, [2-(4-Isobutyrylamino-phenylsulfanyl)-quinazolin-4-yl]-(5-methyl-2H-pyrazol-3-yl)-amine] |
